The source of these data is patent US20040266791A1 (priority 2003, published 2004).

For series [1] the following is noted: cited from earlier work.
Series [2] in a line: Hygroscopicity test / water content by Karl Fischer titration. The format is physicochemical. The note with it: for Water content in % at 2 weeks, 40/75: 40° C./75% relative humidity; for Water content in % at 2 weeks, normal: normal conditions (open air); for Water content in % at t = 0: before storage, Karl Fischer; for water content: isolated dried product of the example. The protocol:
The salts were subjected to storage at normal conditions (open air) and at 40° C./75% relative humidity. Water content was determined by Karl Fischer titration.

The conditions of series [3]: 1 mg/ml aqueous solution, 2% sorbitol, 0.2% benzoic acid, stress temperatures up to 80° C.
Experimental: Dissolve the benzoic acid in 60% of the water (heat if necessary to 90° C., allow to cool afterwards). […] The sorbitol is dissolved in the remaining water (40%). Combine both solutions and make up the volume with water.
The conditions of series [4]: in water at 20° C., calculated on free base.
Experimental: The dissolution of the solid can take a period of time until an equilibrium/steady state between the solid and liquid phases is reached. […] This value is taken as the solubility determination.
Then, 2 ml of the suspension was filtered over a micropore filter. Finally, 1.0 ml of the filtrate was freeze-dried, followed by weight determination of the residue. The maximum amount of the salt dissolved (recalculated to the base), was calculated from this weight determination.

Structures can show the parent of a compound that is named as a salt.

Regarding `Cc1nc2n(c(=O)c1CCN1CCC(c3noc4cc(F)ccc34)CC1)CCCC2` [Risperidone base, 3-[2-[4-(6-Fluoro-1,2-benzisoxazol-3-yl)-1-piperidinyl]-ethyl]-6,7,8,9-tetrahydro-2-methyl-4-H-pyrido[1,2-a]-pyrimidin-4-one], in series [1] (background statement, no source given), the solubility in water result is “approximately 4 mg/ml”.
For `Cc1nc2n(c(=O)c1CCN1CCC(c3noc4cc(F)ccc34)CC1)CCCC2` [Risperidone dihydrochloride], in series [2], the “Water content in % at 2 weeks, 40/75” value is 0.15%; the “Water content in % at 2 weeks, normal” value is given as 0.15%; the “Water content in % at t = 0” value turned out to be 0.13%. Also, the “water content after exposure to air under ambient conditions for 3 weeks” value in series [2] (3 weeks, air, ambient conditions) is on record as 3 weeks: 0.30%. Moreover, in series [2] (absence of drying, or standing at ambient temperature in open air), the “absorbed or adsorbed water” value was “less than 0.5%”. In addition, the hygroscopicity result in series [2] (standing at ambient temperature in open air) is recorded as “not hygroscopic”. Further, the stability of solution entry in series [3] is reported as “surprisingly stable”.
For the compound `Cc1nc2n(c(=O)c1CCN1CCC(c3noc4cc(F)ccc34)CC1)CCCC2.O=C(O)C=CC(=O)O` [Risperidone hydrogenmaleate], in series [2], the “Water content in % at 2 weeks, 40/75” value is given as 0.07%; the “Water content in % at 2 weeks, normal” value came to 0.09%; the “Water content in % at t = 0” value is recorded as 0.09%; the water content entry is reported as “water content: <0.1%”. Also, in series [3], the stability of solution entry is reported as “surprisingly stable”.
Regarding Risperidone (L)hemimalate, in series [2], the “Water content in % at 2 weeks, 40/75” value is on record as 1.09%; the “Water content in % at 2 weeks, normal” value is reported as 0.95%; the “Water content in % at t = 0” value was determined as 0.89%. In addition, the “solubility (calc. on free base)” value in series [4] is greater than 300 mg/mL. Besides, the stability of solution result in series [3] is listed as “surprisingly stable”.
Risperidone Hemifumarate: in series [4], the “solubility (calc. on free base)” value is 3 mg/mL.
With Risperidone acetate monohydrate, in series [2], the “Water content in % at 2 weeks, 40/75” value is recorded as 3.66%; the “Water content in % at 2 weeks, normal” value is 3.39%; the “Water content in % at t = 0” value is reported as 3.78%. The “solubility (calc. on free base)” value in series [4] was 72 mg/mL.
On to Risperidone besylate, for which the “solubility (calc. on free base)” value in series [4] is 6.5 mg/mL.
Turning to Risperidone hemitartrate, in series [2], the “Water content in % at 2 weeks, 40/75” value was 0.59%; the “Water content in % at 2 weeks, normal” value is 0.56%; the “Water content in % at t = 0” value stood at 0.28%; the water content entry was “Water content: 0.28%”. The “solubility (calc. on free base)” value in series [4] is 40 mg/mL.
Regarding Risperidone mesylate, in series [2] (listed as Mesylate), the “Water content in % at 2 weeks, 40/75” value was determined as 8.51% and the “Water content in % at 2 weeks, normal” value turned out to be 1.38%. For the same compound, in series [2] (listed as risperidone mesylate), the “Water content in % at 2 weeks, 40/75” value is on record as 2 weeks: 8.51% and the “Water content in % at 2 weeks, normal” value is on record as “for 2 weeks: 1.38%”. In addition, in series [2], the “Water content in % at t = 0” value was determined as 0.41% and the water content result is reported as “water content: 0.41%”. The “solubility (calc. on free base)” value in series [4] was greater than 160 mg/mL.
Take Risperidone tosylate: in series [4], the “solubility (calc. on free base)” value was 2 mg/mL.
Consider risperidone tartrate, for which, in series [1] (reported in U.S. Pat. No. 5,616,587), the room temperature solubility result was “about 80 mg/ml”.
